Assay [1] has as its target T1, Recombinant human liver GK1 (GST-GK) (Homo sapiens, UniProt P35557).
T1 construct: made in house; host or cells: E. coli
T1 sequence (P35557 1-466 isoform P35557-2): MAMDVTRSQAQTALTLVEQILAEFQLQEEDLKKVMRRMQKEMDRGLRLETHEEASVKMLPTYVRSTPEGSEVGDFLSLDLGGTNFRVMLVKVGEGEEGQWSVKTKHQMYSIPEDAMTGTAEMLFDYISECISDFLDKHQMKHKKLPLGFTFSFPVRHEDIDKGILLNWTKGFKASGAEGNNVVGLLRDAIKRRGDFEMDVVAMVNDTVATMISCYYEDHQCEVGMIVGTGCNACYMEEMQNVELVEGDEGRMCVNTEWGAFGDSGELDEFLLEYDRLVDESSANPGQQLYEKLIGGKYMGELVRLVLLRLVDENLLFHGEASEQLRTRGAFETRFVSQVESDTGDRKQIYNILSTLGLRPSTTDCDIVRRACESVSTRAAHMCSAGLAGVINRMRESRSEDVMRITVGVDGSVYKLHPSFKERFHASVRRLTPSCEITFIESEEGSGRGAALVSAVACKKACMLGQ
Description: Glucokinase in vitro assay (G6PDH-coupled NADH generation, OD340). Type of assay: biochemical. Particulars: 5 mM D-glucose, 30° C., pH 7.1, 10% DMSO. In a few lines: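 GST-tagged recombinant GK1 expressed in E. coli, run at 30° C, pH 7.1 Hepes with 5 mM D-glucose, 1 mM ATP and 1.8 mM NAD, G6PDH-coupled. Compounds were in 10% DMSO final, with a 10 min pre-incubation before enzyme addition. OD340/min rate measured; SC1.5 is the activator concentration giving a 50% increase in activity.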

The next assay concerns Lean C57BL/6J mice. Description: Glucokinase activator in vivo screen, blood glucose in lean mice. Particulars: Mus musculus, vs control at 4 hours post 50 mg/kg oral dose, two hour fast, read-out: % glucose lowering @ 4 H. How it is done: Glucokinase Activator in vivo Screen Protocol in Lean and Diet Induced Obese Mice: Lean or Diet-induced Obese (DIO) C57BL/6J mice were orally dosed via gavage with Glucokinase (GK) activator following a two hour fasting period. Blood glucose determinations were made at various (e.g. 0, 1, 2, 4 and 8 hours post-oral gavage) times during the study.
C57Bl/6J mice were obtained from Jackson Laboratory (Bar Harbor, Me.) and were maintained in a light-dark cycle with lights on from 0600-1800 hr. For studies in lean mice, the mice were received at age ten weeks and given ad libitum access to control diet (LabDiet 5001 chow, PMI Nutrition, Brentwood, Mo.), and were at least age 11 weeks at the time of study. For studies in the DIO model, the mice were received at age five weeks and given ad libitum access to Bio-Serv F3282 High Fat Diet (Frenchtown, N.J.), and were at least age 16 weeks at the time of study. The experiments were conducted during the light phase of the light-dark cycle. Mice (n=6) are weighed and fasted for a two hour period prior to oral treatment. GK activators are formulated in Gelucire vehicle (Ethanol:Gelucire44/14:PEG400q.s. 4:66:30 v/w/v. For studies in lean mice, the mice were dosed orally with 5.0 μL per gram of body weight (i.e. 5 ml/kg×10.0 mg/ml formulation to equal a 50 mg/kg dose). For studies in DIO mice, the mice were dosed orally with 5.0 μL per gram of body weight (i.e. 5.0 ml/kg×5 mg/ml formulation to equal a 25 mg/kg dose). Immediately prior to dosing, a pre-dose (time zero) blood glucose reading was acquired by snipping off a small portion of the animal's tail and collecting 15 μL blood into a heparinized capillary tube for analysis. Following GK activator administration, additional blood glucose readings were taken at various time points post dose from the same tail wound. Results were interpreted by comparing the mean blood glucose values of vehicle treated mice with GK activator treated mice over the study period.
The Table below provides data for % glucose lowering of a representative number of compounds of the present invention vs control at 4 hours post 50 mg/kg dose in lean C57BL/6J mice: […]

Consider `Cn1ccc(NC(=O)C(CC2CCCC2)n2ncc(Oc3ccccc3C(F)(F)F)cc2=O)n1` (stereo not drawn) [Example 14, 3-Cyclopentyl-N-(1-methyl-1H-pyrazol-3-yl)-2-[6-oxo-4-(2-trifluoromethyl-phenoxy)-6H-pyridazin-1-yl]-propionamide], for which the “SC1.5 average (concentration of activator that produced a 50% increase in the activity of GK)” value in assay [1] stood at 0.256 µM. In the assay with Lean C57BL/6J mice, the change in vivo at 50 mg/kg was -46.7%.

Consider `CC(C)(O)Cn1ccc(NC(=O)C(CC2CCCC2)n2ncc(Oc3cccc4c3CCCC4)cc2=O)n1` (stereo not drawn) [Example 17, 3-Cyclopentyl-N-[1-(2-hydroxy-2-methyl-propyl)-1H-pyrazol-3-yl]-2-[6-oxo-4-(5,6,7,8-tetrahydro-naphthalen-1-yloxy)-6H-pyridazin-1-yl]-propionamide], for which the “SC1.5 average (concentration of activator that produced a 50% increase in the activity of GK)” value in assay [1] worked out at 0.113 µM. The change in vivo at 50 mg/kg with Lean C57BL/6J mice was -35.2%.

Consider `CC(C)(O)Cn1ccc(NC(=O)C(CC2CCCC2)n2ncc(Oc3ccccc3F)cc2=O)n1` (stereo not drawn) [Example 19, 3-Cyclopentyl-2-[4-(2-fluoro-phenoxy)-6-oxo-6H-pyridazin-1-yl]-N-[1-(2-hydroxy-2-methyl-propyl)-1H-pyrazol-3-yl]-propionamide], for which the “SC1.5 average (concentration of activator that produced a 50% increase in the activity of GK)” value in assay [1] was 0.14 µM. Also, the change in vivo at 50 mg/kg with Lean C57BL/6J mice is -49.2%.

As for `CC(C)(O)Cn1ccc(NC(=O)C(CC2CCCC2)n2ncc(Oc3ccccc3C3CCCC3)cc2=O)n1` (stereo not drawn) [Example 22, 3-Cyclopentyl-2-[4-(2-cyclopentyl-phenoxy)-6-oxo-6H-pyridazin-1-yl]-N-[1-(2-hydroxy-2-methyl-propyl)-1H-pyrazol-3-yl]-propionamide], the “SC1.5 average (concentration of activator that produced a 50% increase in the activity of GK)” value in assay [1] amounted to 0.347 µM. For the same compound, the change in vivo at 50 mg/kg with Lean C57BL/6J mice is -31.6%.

Consider `Cc1ccccc1Oc1cnn(C(CC2CCCC2)C(=O)Nc2ccn(CC(C)(C)O)n2)c(=O)c1` (stereo not drawn) [Example 24, 3-Cyclopentyl-N-[1-(2-hydroxy-2-methyl-propyl)-1H-pyrazol-3-yl]-2-(6-oxo-4-o-tolyloxy-6H-pyridazin-1-yl)-propionamide], for which the “SC1.5 average (concentration of activator that produced a 50% increase in the activity of GK)” value in assay [1] is 0.174 µM. In the assay with Lean C57BL/6J mice, the change in vivo at 50 mg/kg is -62.1%.

For the compound `CC(C)(O)Cn1ccc(NC(=O)C(CC2CCCC2)n2ncc(Oc3ccccc3C#N)cc2=O)n1` (stereo not drawn) [Example 29, 2-[4-(2-Cyano-phenoxy)-6-oxo-6H-pyridazin-1-yl]-3-cyclopentyl-N-[1-(2-hydroxy-2-methyl-propyl)-1H-pyrazol-3-yl]-propionamide], the “SC1.5 average (concentration of activator that produced a 50% increase in the activity of GK)” value in assay [1] amounted to 0.227 µM. Further, the change in vivo at 50 mg/kg with Lean C57BL/6J mice was -27.8%.

As for `CC(C)(O)Cn1ccc(NC(=O)C(CC2CCCC2)n2ncc(Oc3cc(F)ccc3F)cc2=O)n1` (stereo not drawn) [Example 33, 3-Cyclopentyl-2-[4-(2,5-difluoro-phenoxy)-6-oxo-6H-pyridazin-1-yl]-N-[1-(2-hydroxy-2-methyl-propyl)-1H-pyrazol-3-yl]-propionamide], the “SC1.5 average (concentration of activator that produced a 50% increase in the activity of GK)” value in assay [1] came to 0.356 µM. Further, in the assay on Lean C57BL/6J mice, the change in vivo at 50 mg/kg was -30.2%.

For the compound `CC(C)(O)Cn1ccc(NC(=O)C(CC2CCCC2)n2ncc(Oc3c(F)cccc3F)cc2=O)n1` (stereo not drawn) [Example 36, 3-Cyclopentyl-2-[4-(2,6-difluoro-phenoxy)-6-oxo-6H-pyridazin-1-yl]-N-[1-(2-hydroxy-2-methyl-propyl)-1H-pyrazol-3-yl]-propionamide], the “SC1.5 average (concentration of activator that produced a 50% increase in the activity of GK)” value in assay [1] amounted to 0.063 µM. Further, the change in vivo at 50 mg/kg with Lean C57BL/6J mice is -60.9%.

As for `O=C(O)c1ccc(NC(=O)C(CC2CCCC2)n2ncc(Oc3ccccc3C3CCCC3)cc2=O)nc1` (stereo not drawn) [Example 71, 6-{3-Cyclopentyl-2-[4-(2-cyclopentyl-phenoxy)-6-oxo-6H-pyridazin-1-yl]-propionylamino}-nicotinic acid], in assay [1], the “SC1.5 average (concentration of activator that produced a 50% increase in the activity of GK)” value turned out to be 0.312 µM. The change in vivo at 50 mg/kg with Lean C57BL/6J mice is -61.7%.

The values are drawn from patent publication US8258134B2, “Pyridazinone glucokinase activators” (Hoffmann-La Roche Inc., priority 2008, dated 2012).
